Reference: US8071764B2, “Compounds of reverse turn mimetics and the use thereof (2)” (Choongwae Pharma Corporation, priority 2008, dated 2011)
Like-named read-outs stand apart in the source and are kept apart here. One block for each molecule: values may come before it.

Legend:
[1] = target: T1, cDNA-expressed human hepatic CYP3A4 (Homo sapiens, UniProt P08684); assay: P450 CYP3A4 inhibitory activity screening (fluorescent assay, BFC substrate); type: in vitro ADME
T1 construct: purchased BD Gentest 456202
Description: Assay was conducted in a 200 μL volume in 96-well microtiter plates using cDNA-expressed human hepatic CYP3A4 (supersome, BD Gentest™ #456202). 7-Benzyloxy-4-trifluoromethyl-coumarin (BFC) was used as a substrate for CYP3A4. Test articles and substrate BFC were dissolved in 100% acetonitrile. The final volume of acetonitrile in the incubation mixture was less than 1% (volume/volume). Potassium phosphate buffer (pH 7.4, final concentration 0.1 M), MgCl2 (final concentration 8.3 mM), EDTA (final concentration 1.67 mM), a test article stock solution, a CYP3A4 supersome and NADPH (final concentration 0.25 mM) were added to each well. The reaction was initiated by the addition of substrate (BFC, final concentration 30 µM) after a 10 min pre-incubation at 37° C. After 10 min incubation at 37° C., the reaction was terminated by the addition of […] of acetonitrile:0.5 M Tris-base=4:1 (volume/volume). Thereafter, Fluorescent signal was measured using a fluorometer. BFC metabolite, 7-hydroxy-4-trifluoromethyl-coumarin, was measured using an excitation wavelength of 409 nm and an emission wavelength of 530 nm.

MV-4-11 cells = assay: Cell growth inhibition assay on AML cancer cells; type: cell-based; conditions: Homo sapiens, MV4-11, 72 hours
Description: Cell growth Inhibition assay was performed to investigate the rate of inhibition of cell proliferation by the test compounds. MV-4-11 (human, Acute Myeloid Leukemia cell line) cells were cultured in Iscove's modified Dulbecco's medium (IMDM) including 10% fetal bovine serum (FBS), 1× penicillin/streptomycin (10,000 units/ml Penicillin, […] Streptomycin in 0.85% NaCl). MV-4-11 cells were harvested with IMDM medium and 5×10^4 cells/well were transferred to each well of 96 well culture plates (Nunc, #167008). The test compounds were treated with the serial dilution and duplicated for each concentration. For the serial dilution, the test compounds were repeatedly diluted with the same volume of media onto 96-well assay block (costar, #3956). After the dilution, each compound was added to each well. The background absorbance was also measured during the test compounds treatment by adding the IMDM media in replacement of test compound to the negative control plate. The plates were incubated for 3 days (72 hours) at 37° C. in the humidified incubator containing 5% CO2. On the last day, 20 μL of CellTiter 96 Aqueous One Solution (Promega #G3581) was added to the culture in each well and the plates were incubated for a few hours at 37° C. in the humidified incubator containing 5% CO2. After the incubation, the absorbance of each cell was measured at 490 nm using an EnVision (Perkinelmer, USA). The […] values were calculated using a Prism 3.0 program.

Wnt signaling = assay: TopFlash reporter gene bioassay in SW480 cells; type: cell-based; conditions: Homo sapiens
Description: Inhibition activity against Wnt signaling was measured by the TopFlash reporter. The lower IC50 value means the higher inhibition activity.
TopFlash reporter gene Bioassay for the measurement of IC50 against SW480 cells
The test compound (Compound A) used in this example was prepared in Preparation Example 2. SW480 cells were transfected with the usage of Superfect™ transfect reagent (Qiagen, 301307). Cells were trypsinized briefly 1 day before transfection and plated on 6 well plate (5×10^5 cells/well) so that they were 50-80% confluent on the day of transfection.
Four microgram (TopFlash) and one microgram (pRL-null) of DNAs were diluted in 150 μl of serum-free medium, and 30 μl of Superfect™ transfect reagent was added. The DNA-Superfect mixture was incubated at room temperature for 15 min, and then, 1 ml of 10% FBS DMEM was added to this complex for an additional 3 hours of incubation. While complexes were forming, cells were washed with PBS twice without antibiotics.
The DNA-Superfect™ transfect reagent complexes were applied to the cells before incubating at 37° C. at 5% CO2 for 3 hours. After incubation, recovery medium with 10% FBS was added to bring the final volume to 1.18 ml. After 3 hours incubation, the cells were harvested and reseeded to a 96 well plate (3×10^4 cells/well). After overnight incubation at 37° C. at 5% CO2, the cells were treated with Compound A for 24 hours. […]

[2] = fluorescent assay, read-out: CYP3A4 inhibition, IC50 (μM) fluorescent assay
[3] = MV-4-11 AML cells, read-out: MV-4-11, GI50
[4] = MV-4-11 cells, FIG. 4, read-out: GI50

T1 sequence (P08684 whole entry): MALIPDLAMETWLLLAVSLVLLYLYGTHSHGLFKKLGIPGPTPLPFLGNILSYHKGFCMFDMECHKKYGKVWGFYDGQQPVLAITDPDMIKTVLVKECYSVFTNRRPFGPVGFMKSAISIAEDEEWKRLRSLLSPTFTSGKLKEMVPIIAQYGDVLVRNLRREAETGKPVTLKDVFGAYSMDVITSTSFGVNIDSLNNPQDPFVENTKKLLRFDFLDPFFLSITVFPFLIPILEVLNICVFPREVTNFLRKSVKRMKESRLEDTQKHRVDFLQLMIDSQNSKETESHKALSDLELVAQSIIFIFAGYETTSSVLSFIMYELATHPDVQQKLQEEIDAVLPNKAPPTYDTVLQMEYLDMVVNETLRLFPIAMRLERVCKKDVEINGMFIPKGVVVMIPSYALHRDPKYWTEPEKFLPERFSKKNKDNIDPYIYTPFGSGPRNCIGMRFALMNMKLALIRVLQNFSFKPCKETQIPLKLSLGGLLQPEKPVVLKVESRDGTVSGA

Structure (SMILES): C=CCN1CC(=O)N2[C@@H](Cc3ccc(O)cc3)C(=O)N(Cc3cccc4nnn(CC(=O)N(C)C)c34)C[C@@H]2N1C(=O)NCc1ccccc1 [compound 8]
GI50 (MV-4-11 cells; [3]): 1920 nM

Structure (SMILES): C=CCN1CC(=O)N2[C@@H](Cc3ccc(O)cc3)C(=O)N(Cc3cccc4c3nnn4CC(N)=O)C[C@@H]2N1C(=O)NCc1ccccc1 [Compound C]
GI50 (MV-4-11 cells; [4]): 560 nM

Structure (SMILES): C=CCN1CC(=O)N2[C@@H](Cc3ccc(O)cc3)C(=O)N(Cc3cccc4nnn(CC(=O)O)c34)C[C@@H]2N1C(=O)NCc1ccccc1 [compound 3]
IC50 [1, 2]: > 50 µM

Structure (SMILES): C=CCN1CC(=O)N2[C@@H](Cc3ccc(O)cc3)C(=O)N(Cc3cccc4nnn(CC(=O)N(C)C)c34)C[C@@H]2N1C(=O)NCc1ccccc1 [compound 7]
IC50 [1, 2]: 41.1 µM

Structure (SMILES): C=CCN1CC(=O)N2[C@@H](Cc3ccc(O)cc3)C(=O)N(Cc3cccc4nnn(CC(=O)N5CCN(C)CC5)c34)C[C@@H]2N1C(=O)NCc1ccccc1 [compound 5]
GI50 (MV-4-11 cells; [3]): 2970 nM

Structure (SMILES): C=CCN1CC(=O)N2[C@@H](Cc3ccc(O)cc3)C(=O)N(Cc3cccc4nnn(CC(=O)OCC)c34)C[C@@H]2N1C(=O)NCc1ccccc1 [compound 3]
GI50 (MV-4-11 cells; [3]): 710 nM

Structure (SMILES): C=CCN1CC(=O)N2[C@@H](Cc3ccc(O)cc3)C(=O)N(Cc3ccc4nn(C)nc4c3)C[C@@H]2N1C(=O)NCc1ccccc1 [compound 1]
IC50 [1, 2]: 19.2 µM
IC50 (Wnt signaling; SW480, TopFlash reporter gene assay, read-out: RGA, IC50 (μM) TopF): 1 ± 0.25 µM
GI50 (MV-4-11 cells; [3]): 260 nM

Structure (SMILES): C=CCN1CC(=O)N2[C@@H](Cc3ccc(O)cc3)C(=O)N(Cc3cccc4nnn(CC(=O)N5CCOCC5)c34)C[C@@H]2N1C(=O)NCc1ccccc1 [compound 4]
IC50 [1, 2]: 6.23 µM
GI50 (MV-4-11 cells; [3]): 930 nM

Structure (SMILES): C=CCN1CC(=O)N2[C@@H](Cc3ccc(O)cc3)C(=O)N(Cc3cccc4c3nnn4CC(=O)N3CCOCC3)C[C@@H]2N1C(=O)NCc1ccccc1 [compound 7]
GI50 (MV-4-11 cells; [3]): 370 nM

Structure (SMILES): C=CCN1CC(=O)N2[C@@H](Cc3ccc(O)cc3)C(=O)N(Cc3cccc4nnn(CC(N)=O)c34)C[C@@H]2N1C(=O)NCc1ccccc1 [compound 13]
GI50 (MV-4-11 cells; [3]): 3270 nM

Continued, values first:

IC50 [1, 2]: > 50 µM
Structure (SMILES): C=CCN1CC(=O)N2[C@@H](Cc3ccc(O)cc3)C(=O)N(Cc3cccc4c3nnn4CC(=O)O)C[C@@H]2N1C(=O)NCc1ccccc1 [compound 6]

IC50 [1, 2]: 32.4 µM
Structure (SMILES): C=CCN1CC(=O)N2[C@@H](Cc3ccc(O)cc3)C(=O)N(Cc3cccc4c3nnn4CC(=O)NC)C[C@@H]2N1C(=O)NCc1ccccc1 [compound 13]

GI50 (MV-4-11 cells; [3]): 560 nM
Structure (SMILES): C=CCN1CC(=O)N2[C@@H](Cc3ccc(O)cc3)C(=O)N(Cc3cccc4c3nnn4CC(N)=O)C[C@@H]2N1C(=O)NCc1ccccc1 [compound 12]

inhibition of a CYP3A4 enzyme (in words) ([1]; FIG. 2): weak inhibition
IC50 ([1]; Table 6, FIG. 2, read-out: IC50 against CYP3A4 activity): 19.2 µM
IC50 (Wnt signaling; SW480 cells, TopFlash, 24 hours treatment, FIG. 3, read-out: IC50 of Compound A for SW480 cells): 1 ± 0.254 µM
GI50 (MV-4-11 cells; [4]): 262 nM
Structure (SMILES): C=CCN1CC(=O)N2[C@@H](Cc3ccc(O)cc3)C(=O)N(Cc3ccc4nn(C)nc4c3)C[C@@H]2N1C(=O)NCc1ccccc1 [Compound A, 2-allyl-6-(4-hydroxy-benzyl)-8-(2-methyl-2H-benzotriazol-5-ylmethyl)-4,7-dioxo-hexahydro-pyrazino[2,1-c][1,2,4]triazine-1-carboxylic acid benzylamide]

GI50 (MV-4-11 cells; [3]): 1850 nM
Structure (SMILES): C=CCN1CC(=O)N2[C@@H](Cc3ccc(O)cc3)C(=O)N(Cc3cccc4nnn(CC(=O)NCCOC)c34)C[C@@H]2N1C(=O)NCc1ccccc1 [compound 9]

GI50 (MV-4-11 cells; [3]): 180 nM
Structure (SMILES): C=CCN1CC(=O)N2[C@@H](Cc3ccc(O)cc3)C(=O)N(Cc3cccc4c3nnn4CC(=O)NC)C[C@@H]2N1C(=O)NCc1ccccc1 [compound 15]

GI50 (MV-4-11 cells; [3]): 650 nM
Structure (SMILES): C=CCN1CC(=O)N2[C@@H](Cc3ccc(O)cc3)C(=O)N(Cc3cccc4c3nnn4CC(=O)OCC)C[C@@H]2N1C(=O)NCc1ccccc1 [compound 6]

IC50 [1, 2]: 46.9 µM
Structure (SMILES): C=CCN1CC(=O)N2[C@@H](Cc3ccc(O)cc3)C(=O)N(Cc3cccc4nnn(CC(=O)NCCOC)c34)C[C@@H]2N1C(=O)NCc1ccccc1 [compound 8]

GI50 (MV-4-11 cells; [3]): 600 nM
Structure (SMILES): C=CCN1CC(=O)N2[C@@H](Cc3ccc(O)cc3)C(=O)N(Cc3cccc4c3nnn4CC(=O)NCc3ccncc3)C[C@@H]2N1C(=O)NCc1ccccc1 [compound 14]

IC50 [1, 2]: 38 µM
Structure (SMILES): C=CCN1CC(=O)N2[C@@H](Cc3ccc(O)cc3)C(=O)N(Cc3cccc4c3nnn4CC(=O)N(C)C)C[C@@H]2N1C(=O)NCc1ccccc1 [compound 9]

IC50 [1, 2]: 7.4 µM
Structure (SMILES): C=CCN1CC(=O)N2[C@@H](Cc3ccc(O)cc3)C(=O)N(Cc3cccc4c3nnn4CC(=O)OCC)C[C@@H]2N1C(=O)NCc1ccccc1 [compound 5]

IC50 [1, 2]: 33.2 µM
Structure (SMILES): C=CCN1CC(=O)N2[C@@H](Cc3ccc(O)cc3)C(=O)N(Cc3cccc4nnn(CC(N)=O)c34)C[C@@H]2N1C(=O)NCc1ccccc1 [compound 12]
